Experimental data reported in PubChem BioAssay AID330 (DTP/NCI, 2004).
Several values for one entry are separate records, joined by “and”; a condition that tells them apart may be missing. Equal entries are not always repeated. Inconclusive results and toxic doses are left out.

System: P388 leukemia ip, CD2F1 mice, survival T/C
Experiment: NCI In Vivo Anticancer Drug Screen. Data for tumor model P388 Leukemia (intraperitoneal) in CD2F1 (CDF1) mice
Details: endpoint: median survival time, higher = longer survival
Method in brief: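 Mice carrying the transplanted tumor received test compound or vehicle. Survival was recorded in each group, and the value is the treated-group measurement divided by that of the vehicle-treated control group.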

[1] = dose: 100.0 mg/kg/injection, schedule: Q04DX002 (ip), vehicle: saline with Tween-80
[2] = dose: 200.0 mg/kg/injection, schedule: Q04DX002 (ip), vehicle: saline with Tween-80
[3] = dose: 50.0 mg/kg/injection, schedule: Q01DX009 (ip), vehicle: Klucel (hydroxypropylcellulose) (HPC)
[4] = dose: 100.0 mg/kg/injection, schedule: Q01DX009 (ip), vehicle: Klucel (hydroxypropylcellulose) (HPC)
[5] = dose: 200.0 mg/kg/injection, schedule: Q01DX009 (ip), vehicle: Klucel (hydroxypropylcellulose) (HPC)
[6] = dose: 60.0 mg/kg/injection, schedule: Q01DX005 (ip), vehicle: saline with Tween-80
[7] = dose: 120.0 mg/kg/injection, schedule: Q01DX005 (ip), vehicle: saline with Tween-80
[8] = dose: 240.0 mg/kg/injection, schedule: Q01DX005 (ip), vehicle: saline with Tween-80
[9] = dose: 50.0 mg/kg/injection, schedule: Q01DX005 (ip), vehicle: saline with Tween-80
[10] = dose: 100.0 mg/kg/injection, schedule: Q01DX005 (ip), vehicle: saline with Tween-80
[11] = dose: 200.0 mg/kg/injection, schedule: Q01DX005 (ip), vehicle: saline with Tween-80
[12] = dose: 12.5 mg/kg/injection, schedule: Q01DX009 (ip), vehicle: Klucel (hydroxypropylcellulose) (HPC)
[13] = dose: 25.0 mg/kg/injection, schedule: Q01DX009 (ip), vehicle: Klucel (hydroxypropylcellulose) (HPC)
[14] = dose: 50.0 mg/kg/injection, schedule: Q01DX009 (ip), vehicle: saline
[15] = dose: 200.0 mg/kg/injection, schedule: Q01DX009 (ip), vehicle: saline
[16] = dose: 50.0 mg/kg/injection, schedule: Q01DX009 (ip), vehicle: saline with Tween-80
[17] = dose: 100.0 mg/kg/injection, schedule: Q01DX009 (ip), vehicle: saline with Tween-80
[18] = dose: 200.0 mg/kg/injection, schedule: Q01DX009 (ip), vehicle: saline with Tween-80
[19] = dose: 100.0 mg/kg/injection, schedule: Q01DX009 (ip), vehicle: saline

O=C(O)C(=O)O.O=C(O)C(=O)O.O=C(O)C(=O)O.[Ir]
T/C (dose: 12.5 mg/kg/injection, schedule: Q04DX003 (ip), vehicle: water): 120 % of control
T/C (dose: 25.0 mg/kg/injection, schedule: Q04DX003 (ip), vehicle: water): 120 % of control
T/C (dose: 50.0 mg/kg/injection, schedule: Q04DX003 (ip), vehicle: water): 93 % of control
T/C (dose: 100.0 mg/kg/injection, schedule: Q04DX003 (ip), vehicle: water): 98 % of control

CC(=Nc1cc(Cl)ccc1O)C1=C(O)c2ccccc2C1=O
T/C (dose: 50.0 mg/kg/injection, schedule: Q04DX002 (ip), vehicle: saline with Tween-80): 94 % of control
T/C [1]: 97 % of control
T/C [2]: 97 % of control

O=S(=O)(NCCSSCCNS(=O)(=O)c1cccs1)c1cccs1
T/C [3]: 88 % of control
T/C [4]: 92 % of control
T/C [5]: 100 % of control

Cn1c(Cl)cc2nc3ccccc3n2c1=O
T/C [6]: 96 % of control
T/C [7]: 94 % of control
T/C [8]: 100 % of control

Cn1ncc2c(=O)[nH]c(-c3ccccc3)nc21
T/C [6]: 105 % of control
T/C [7]: 96 % of control
T/C [8]: 105 % of control

CSC(C(OC(C)=O)C(OC(C)=O)C(OC(C)=O)C(COC(C)=O)OC(C)=O)n1cnc2c(=S)nc[nH]c21 (centres undefined)
T/C [9]: 101 % of control
T/C [10]: 92 % of control
T/C [11]: 89 % of control

CCN(CC)CCCC(C)Nc1cc(C)nc2c1ccc1c2ccc2c(NC(C)CCCN(CC)CC)cc(C)nc21 (centres undefined)
T/C (dose: 12.5 mg/kg/injection, schedule: Q01DX009 (ip), vehicle: distilled water + Tween-80): 118 % of control
T/C (dose: 25.0 mg/kg/injection, schedule: Q01DX009 (ip), vehicle: distilled water + Tween-80): 111 % of control

CC(C)(C)CC(C)(C)c1ccc(OCCOc2ccc(C(=O)NCCNC(=O)c3ccc4ccccc4c3O)cc2N)cc1
T/C (dose: 6.25 mg/kg/injection, schedule: Q01DX009 (ip), vehicle: Klucel (hydroxypropylcellulose) (HPC)): 102 % of control
T/C [12]: 114 % of control
T/C [13]: 102 % of control
T/C [3]: 98 % of control
T/C [4]: 102 % of control

NC(CSCC(=O)O)C(=O)O (centres undefined)
T/C [13]: 95 % of control
T/C [3]: 111 % of control
T/C [4]: 105 % of control
T/C [5]: 98 % of control

C1CCC2[N-]CC3CCCCC3[N-]CC3CCCCC3[N-]CC3CCCCC3[N-]CC2C1.[Cu] (centres undefined)
T/C (dose: 0.39 mg/kg/injection, schedule: Q01DX009 (ip), vehicle: saline): 105 % of control
T/C (dose: 0.78 mg/kg/injection, schedule: Q01DX009 (ip), vehicle: Klucel (hydroxypropylcellulose) (HPC)): 121 % of control
T/C (dose: 0.78 mg/kg/injection, schedule: Q01DX009 (ip), vehicle: saline): 123 % of control
T/C (dose: 1.56 mg/kg/injection, schedule: Q01DX009 (ip), vehicle: saline): 123 % of control
T/C (dose: 1.56 mg/kg/injection, schedule: Q01DX009 (oral), vehicle: Klucel (hydroxypropylcellulose) (HPC)): 89 % of control
T/C (dose: 3.12 mg/kg/injection, schedule: Q01DX009 (oral), vehicle: Klucel (hydroxypropylcellulose) (HPC)): 99 % of control
T/C (dose: 6.25 mg/kg/injection, schedule: Q01DX009 (oral), vehicle: Klucel (hydroxypropylcellulose) (HPC)): 99 % of control
T/C [12]: 119 % of control
T/C (dose: 12.5 mg/kg/injection, schedule: Q01DX009 (oral), vehicle: Klucel (hydroxypropylcellulose) (HPC)): 93 % of control and 98 % of control
T/C (dose: 25.0 mg/kg/injection, schedule: Q01DX009 (oral), vehicle: Klucel (hydroxypropylcellulose) (HPC)): 106 % of control and 91 % of control
T/C (dose: 50.0 mg/kg/injection, schedule: Q01DX009 (oral), vehicle: Klucel (hydroxypropylcellulose) (HPC)): 93 % of control
T/C (dose: 100.0 mg/kg/injection, schedule: Q01DX009 (oral), vehicle: Klucel (hydroxypropylcellulose) (HPC)): 93 % of control and 98 % of control
T/C (dose: 200.0 mg/kg/injection, schedule: Q01DX009 (oral), vehicle: Klucel (hydroxypropylcellulose) (HPC)): 88 % of control

CC(OC(C(O)C=O)C(O)C(O)CO)C(=O)N[C@@H](C)C(=O)O (some centres undefined)
T/C [6]: 101 % of control
T/C [7]: 100 % of control
T/C [8]: 100 % of control

COc1ccc(N=C(c2ccccc2)C2C(=O)c3ccccc3C2=O)cc1
T/C [9]: 103 % of control
T/C [10]: 108 % of control
T/C [11]: 112 % of control

N=c1c(C(N)=O)cnc2n1CCCCC2
T/C (dose: 25.0 mg/kg/injection, schedule: Q04DX003 (ip), vehicle: saline): 100 % of control
T/C (dose: 50.0 mg/kg/injection, schedule: Q04DX003 (ip), vehicle: saline): 100 % of control
T/C (dose: 100.0 mg/kg/injection, schedule: Q04DX003 (ip), vehicle: saline): 98 % of control

O=C(c1ccc(Br)cc1)c1cnc2nc(-c3ccccc3)c(-c3ccccc3)nn12
T/C [9]: 91 % of control
T/C [10]: 96 % of control
T/C [11]: 96 % of control

COC(=O)C1c2ccccc2C(C(=O)OC)C(C(=O)OC)C(C(=O)OC)c2ccccc21 (centres undefined)
T/C (dose: 100.0 mg/kg/injection, schedule: Q04DX003 (ip), vehicle: Klucel (hydroxypropylcellulose) (HPC)): 102 % of control
T/C (dose: 200.0 mg/kg/injection, schedule: Q04DX003 (ip), vehicle: Klucel (hydroxypropylcellulose) (HPC)): 102 % of control
T/C (dose: 400.0 mg/kg/injection, schedule: Q04DX003 (ip), vehicle: Klucel (hydroxypropylcellulose) (HPC)): 99 % of control

CCN(CC)CCCC(C)NC(=S)N/N=C(\C)c1ccccn1 (centres undefined)
T/C [14]: 110 % of control and 113 % of control
T/C [15]: 157 % of control

COc1ccc(NC(=S)NC(=O)c2ccccc2)cc1OC
T/C [16]: 99 % of control
T/C [17]: 100 % of control
T/C [18]: 107 % of control

CN(C)C1C(=O)C(C(=O)NCN2CCOB(c3ccccc3)OCC2)=C(O)C2(O)C(O)=C3C(=O)C4C(O)=CC=CC4C(C)(O)C3CC12 (centres undefined)
T/C (dose: 12.5 mg/kg/injection, schedule: Q04DX002 (ip), vehicle: saline): 101 % of control
T/C (dose: 25.0 mg/kg/injection, schedule: Q04DX002 (ip), vehicle: saline): 105 % of control
T/C (dose: 50.0 mg/kg/injection, schedule: Q04DX002 (ip), vehicle: saline): 108 % of control

COc1cc(CC(CC(=O)O)C(=O)O)cc(OC)c1OC (centres undefined)
T/C (dose: 50.0 mg/kg/injection, schedule: Q01DX005 (ip), vehicle: Klucel (hydroxypropylcellulose) (HPC)): 97 % of control
T/C (dose: 100.0 mg/kg/injection, schedule: Q01DX005 (ip), vehicle: Klucel (hydroxypropylcellulose) (HPC)): 88 % of control
T/C (dose: 200.0 mg/kg/injection, schedule: Q01DX005 (ip), vehicle: Klucel (hydroxypropylcellulose) (HPC)): 97 % of control

Cc1nn(C(=O)c2cccnc2)c(-c2ccccc2)c1N=Nc1ccc(S(N)(=O)=O)cc1
T/C [1]: 90 % of control
T/C [2]: 90 % of control
T/C (dose: 400.0 mg/kg/injection, schedule: Q04DX002 (ip), vehicle: saline with Tween-80): 95 % of control

COC(=O)C12C=CC(C(=O)OC)(CC1)n1c(=O)n(-c3ccccc3)c(=O)n12
T/C [9]: 107 % of control
T/C [10]: 100 % of control
T/C [11]: 100 % of control

CCCCCCN(C)C12CN3CN(CN(C3)C1)C2
T/C [14]: 102 % of control
T/C [19]: 102 % of control
T/C [15]: 102 % of control

CCOC(=O)CCc1ccc2c(c1)OCO2
T/C [19]: 100 % of control
T/C (dose: 100.0 mg/kg/injection, schedule: Q04DX003 (ip), vehicle: saline with Tween-80): 91 % of control
T/C [15]: 104 % of control
T/C (dose: 200.0 mg/kg/injection, schedule: Q04DX003 (ip), vehicle: saline with Tween-80): 100 % of control
T/C (dose: 400.0 mg/kg/injection, schedule: Q01DX009 (ip), vehicle: saline): 113 % of control
T/C (dose: 400.0 mg/kg/injection, schedule: Q04DX003 (ip), vehicle: saline with Tween-80): 91 % of control

CCOCCSc1ccccc1
T/C (dose: 25.0 mg/kg/injection, schedule: Q01DX009 (ip), vehicle: saline with Tween-80): 99 % of control
T/C [16]: 103 % of control
T/C [17]: 112 % of control
T/C [18]: 105 % of control

O=C1c2ccccc2C(=O)c2c1cccc2N1CCOCC1
T/C [3]: 99 % of control and 100 % of control
T/C [4]: 101 % of control
T/C [5]: 103 % of control and 94 % of control

COC(=O)c1c(COC(=O)NC(C)C)c2n(c1C)CS(=O)(=O)C2
T/C (dose: 12.5 mg/kg/injection, schedule: Q01DX005 (ip), vehicle: saline with Tween-80): 96 % of control
T/C (dose: 25.0 mg/kg/injection, schedule: Q01DX005 (ip), vehicle: saline with Tween-80): 95 % of control
T/C [9]: 92 % of control
